Measurements reported in US7790742B2, “Substituted 4-phenyltetrahydroisoquinolines, pharmaceutical compositions thereof, methods for their preparation and therapeutic use” (Sanofi-Aventis Deutschland GmbH, priority 2004, dated 2010).

Tests used:
NHE3 = target: T1, NHE3 (Homo sapiens, UniProt P48764); assay: Determination of the NHE-inhibitory effect (recovery of intracellular pH after acidification, BCECF); format: cell-based; settings: BCECF fluorescence, NHE subtype not given
T1 construct: host or cells: cells, not specified
T1 sequence (P48764 26-834): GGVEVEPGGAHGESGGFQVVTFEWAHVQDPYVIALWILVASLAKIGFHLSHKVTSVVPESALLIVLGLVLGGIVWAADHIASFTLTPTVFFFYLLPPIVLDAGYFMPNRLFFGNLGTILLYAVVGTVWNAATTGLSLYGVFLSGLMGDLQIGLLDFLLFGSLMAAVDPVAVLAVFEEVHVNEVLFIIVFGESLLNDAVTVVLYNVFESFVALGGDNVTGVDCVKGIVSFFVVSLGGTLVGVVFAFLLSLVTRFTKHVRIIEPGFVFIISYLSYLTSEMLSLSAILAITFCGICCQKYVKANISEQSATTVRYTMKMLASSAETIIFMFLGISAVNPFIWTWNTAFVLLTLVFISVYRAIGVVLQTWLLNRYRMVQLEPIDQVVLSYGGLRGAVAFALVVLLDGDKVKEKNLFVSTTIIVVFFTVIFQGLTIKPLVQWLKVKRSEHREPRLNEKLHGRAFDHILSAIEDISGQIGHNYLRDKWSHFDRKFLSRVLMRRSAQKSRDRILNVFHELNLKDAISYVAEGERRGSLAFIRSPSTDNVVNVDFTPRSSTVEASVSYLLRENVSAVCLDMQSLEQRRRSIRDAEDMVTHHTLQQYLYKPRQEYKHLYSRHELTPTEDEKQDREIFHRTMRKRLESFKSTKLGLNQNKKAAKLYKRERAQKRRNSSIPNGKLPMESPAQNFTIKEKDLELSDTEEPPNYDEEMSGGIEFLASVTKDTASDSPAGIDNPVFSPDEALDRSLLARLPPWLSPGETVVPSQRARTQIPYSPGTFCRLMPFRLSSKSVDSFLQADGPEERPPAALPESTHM
Description: [drawing 82] was obtained in analogy to the method indicated in Example 16 from 6,8-dichloro-2-methyl-4(R)-[2N-(2-ethoxy-3,4-dioxocyclobuten-1-yl)amino]-phenyl-1,2,3,4-tetrahydroisoquinoline (Example 6) and methylamine. Crystalline solid, m.p. 265° C. Pharmacological Data: Assay: Determination of the NHE-Inhibitory Effect
In this assay, the recovery of the intracellular pH (pHj) after an acidification which occurs even under bicarbonate-free conditions with functional NHE was determined. To this end, the pHj was determined using the pH-sensitive fluorescent dye BCECF (calbiochem, the precursor BCECF-AM was employed). The cells were initially loaded with BCECF. The BCECF fluorescence was determined in a ratio fluorescence spectrometer (Photon Technology International, South Brunswick, N.J., USA) with excitation wavelengths of 505 and 440 nm and an emission wavelength of 535 nm and converted into the pHj using calibration plots. The cells had been incubated in NH4Cl buffer (pH 7.4) for the BCECF loading (NH4Cl buffer: 115 mM NaCl, 20 mM NH4Cl, 5 mM KCl, 1 mM CaCl2, 1 mM MgSO4, 20 mM Hepes, 5 mM glucose, 1 mg/ml BSA; a pH of 7.4 was adjusted with 1 M NaOH). The intracellular acidification was induced by adding 975 μl of an NH4Cl-free buffer (see below) to 25 μl aliquots of the cells incubated in NH4Cl buffer. The subsequent rate of pH recovery was recorded for two minutes with NHE1, five minutes with NHE2 and three minutes with NHE3. To calculate the inhibitory power of the tested substances, the cells were initially investigated in buffers with which there was complete or absolutely no pH recovery. For complete pH recovery (100%), the cells were incubated in Na^+-containing buffer (133.8 mM NaCl, 4.7 mM KCl, 1.25 mM CaCl2, 1.25 mM MgCl2, 0.97 mM Na2HPO4, 0.23 mM NaH2PO4, 5 mM Hepes, 5 mM glucose, a pH of 7.0 was adjusted with 1 M NaOH). To determine the 0% value, the cells were incubated in an Na^+-free buffer (133.8 mM choline chloride, 4.7 mM KCl, 1.25 mM CaCl2, 1.25 mM MgCl2, 0.97 mM K2HPO4, 0.23 mM KH2PO4, 5 mM Hepes, 5 mM glucose, a pH of 7.0 was adjusted with 1 M NaOH). The substances to be tested were made up in the Na^+-containing buffer. The recovery of the intracellular pH at each tested concentration of a substance was expressed as a percentage of the maximum recovery. The IC50 of the respective substance for the individual NHE subtypes was calculated from the percentages of pH recovery using the Sigma Plot program.

IC50 (NHE3) | melting point | Structure (SMILES)
1.15 µM | 275 to 280 °C | CCN(CC)c1c(Nc2ccc(C3CN(C)Cc4c(Cl)cc(Cl)cc43)cc2)c(=O)c1=O (stereo not drawn) [Example 19, 6,8-dichloro-2-methyl-4-[4N-(2-diethylamino-3,4-dioxocyclobuten-1-yl)amino]phenyl-1,2,3,4-tetrahydroisoquinoline]
2.49 µM |  | CCCN(CCC)c1c(Nc2ccc(C3CN(C)Cc4c(Cl)cc(Cl)cc43)cc2)c(=O)c1=O (stereo not drawn) [Example 24, 6,8-dichloro-2-methyl-4-[4N-(2-dipropylamino-3,4-dioxocyclobuten-1-yl)amino]phenyl-1,2,3,4-tetrahydroisoquinoline]
0.21 µM | 220 to 225 °C | CCN(CC)c1c(Nc2ccc([C@@H]3CN(C)Cc4c(Cl)cc(Cl)cc43)cc2)c(=O)c1=O [Example 27, 6,8-dichloro-2-methyl-4(S)-[4N-(2-diethylamino-3,4-dioxocyclobuten-1-yl)amino]phenyl-1,2,3,4-tetrahydroisoquinoline]
7.14 µM | 134 to 144 °C | CCCN(CC1CC1)c1c(Nc2ccc(C3CN(C)Cc4c(Cl)cc(Cl)cc43)cc2)c(=O)c1=O (stereo not drawn) [Example 29, 6,8-dichloro-2-methyl-4-[4N-(2-(N-cyclopropylmethyl-N-propylamino)-3,4-dioxocyclobuten-1-yl)amino]phenyl-1,2,3,4-tetrahydro-isoquinoline]
0.14 µM | 125 to 135 °C | CCN(CC)c1c(Nc2cccc([C@@H]3CN(C)Cc4c(Cl)cc(Cl)cc43)c2)c(=O)c1=O [Example 30]
0.13 µM | 135 to 150 °C | CC(C)N(C)c1c(Nc2cccc([C@@H]3CN(C)Cc4c(Cl)cc(Cl)cc43)c2)c(=O)c1=O [Example 31]
0.031 µM | 135 to 140 °C | CCCN(C)c1c(Nc2cccc([C@@H]3CN(C)Cc4c(Cl)cc(Cl)cc43)c2)c(=O)c1=O [Example 33]
0.85 µM | 236 to 240 °C | CCCN(C)c1c(Nc2ccccc2[C@@H]2CN(C)Cc3c(Cl)cc(Cl)cc32)c(=O)c1=O [Example 37]
1.52 µM | 246 to 250 °C | CCN(CC)c1c(Nc2ccccc2[C@@H]2CN(C)Cc3c(Cl)cc(Cl)cc32)c(=O)c1=O [Example 39, 6,8-dichloro-2-methyl-4(R)-[2N-(2-diethylamino-3,4-dioxocyclobuten-1-yl)amino]phenyl-1,2,3,4-tetrahydroisoquinoline]
0.24 µM | 190 to 194 °C | CCCN(CCC)c1c(Nc2ccccc2[C@@H]2CN(C)Cc3c(Cl)cc(Cl)cc32)c(=O)c1=O [Example 40]
0.11 µM | 220 to 224 °C | CN1Cc2c(Cl)cc(Cl)cc2[C@H](c2ccccc2Nc2c(N3CCCC3)c(=O)c2=O)C1 [Example 41, 6,8-dichloro-2-methyl-4(R)-[2N-(2-N-pyrrolidino-3,4-dioxocyclobuten-1-yl)amino]phenyl-1,2,3,4-tetrahydroisoquinoline]
0.15 µM | 210 to 214 °C | CC(C)N(C)c1c(Nc2ccccc2[C@@H]2CN(C)Cc3c(Cl)cc(Cl)cc32)c(=O)c1=O [Example 42]

Further lines, the molecule ahead of its results:

Structure (SMILES) | IC50 (NHE3) | melting point
CN1Cc2c(Cl)cc(Cl)cc2C(c2ccc(Nc3c(N(C)C)c(=O)c3=O)cc2)C1 (stereo not drawn) [Example 18, 6,8-dichloro-2-methyl-4-[4N-(2-dimethylamino-3,4-dioxocyclobuten-1-yl)amino]phenyl-1,2,3,4-tetrahydroisoquinoline] | 0.26 µM | 208 to 214 °C
CC(C)CN(C)c1c(Nc2ccc(C3CN(C)Cc4c(Cl)cc(Cl)cc43)cc2)c(=O)c1=O (stereo not drawn) [Example 25, 6,8-dichloro-2-methyl-4-[4N-(2-(N-isobutyl-N-methylamino)-3,4-dioxocyclobuten-1-yl)amino]phenyl-1,2,3,4-tetrahydroisoquinoline] | 2.81 µM | > 310 °C
COCCN(C)c1c(Nc2ccc(C3CN(C)Cc4c(Cl)cc(Cl)cc43)cc2)c(=O)c1=O (stereo not drawn) [Example 26] | 1.7 µM | 206 to 210 °C
CC(C)N(C)c1c(Nc2ccc([C@@H]3CN(C)Cc4c(Cl)cc(Cl)cc43)cc2)c(=O)c1=O [Example 28, 6,8-dichloro-2-methyl-4(S)-[4N-(2-(N-isopropyl-N-methylamino)-3,4-dioxocylcobuten-1-yl)amino]phenyl-1,2,3,4-tetrahydroisoquinoline] | 0.26 µM | 165 to 175 °C (dec.)
CCN(c1c(Nc2ccc([C@@H]3CN(C)Cc4c(Cl)cc(Cl)cc43)cc2)c(=O)c1=O)C(C)C [Example 32] | 0.68 µM | 160 to 190 °C
CN1Cc2c(Cl)cc(Cl)cc2[C@H](c2cccc(Nc3c(N4CCCC4)c(=O)c3=O)c2)C1 [Example 34, 6,8-dichloro-2-methyl-4(S)-[3N-(2-N-pyrrolidino-3,4-dioxocyclobuten-1-yl)amino]phenyl-1,2,3,4-tetrahydroisoquinoline] | 0.052 µM | 138 to 143 °C
CN1Cc2c(Cl)cc(Cl)cc2[C@H](c2ccc(Nc3c(N4CCCC4)c(=O)c3=O)cc2)C1 [Example 36, 6,8-dichloro-2-methyl-4(S)-[4N-(2-N-pyrrolidino-3,4-dioxocyclobuten-1-yl)amino]phenyl-1,2,3,4-tetrahydroisoquinoline] | 0.23 µM | 264 to 270 °C
CN1Cc2c(Cl)cc(Cl)cc2C(c2ccc(Nc3c(N(C)Cc4ccccc4)c(=O)c3=O)cc2)C1 (stereo not drawn) [Example 38] | 8 µM | 158 to 162 °C
